We go through five compounds from EP0897904B1, “Fungicidal 2-methoxybenzophenones” (BASF AKTIENGESELLSCHAFT, priority 1997, dated 1999).

Holding throughout (assay type): in vivo
Assay [1] concerns Blumeria (Erysiphe) graminis DC. f.sp. tritici E. Marchal. Kind of assay: Curative and residual control test, Wheat Powdery Mildew (WPM). Particulars: read-out: Disease control (% efficacy). An excerpt:
(§1) • (a) Wheat Powdery Mildew (WPM): HOST: Wheat (Triticum aestivum L.) variety Kanzler PATHOGEN: Blumeria (Erysiphe) graminis DC. f.sp. tritici E. Marchal • (b) Cucumber Powdery Mildew (QPM): HOST: Cucumber (Cucumis sativus L.) variety Bush pickle PATHOGEN: Erysiphe cichoracearum DC
(§2) This test procedure is for curative and residual control of powdery mildew diseases. • 1. Wheat seed (approximately 8-10/pot) or cucumber seed (1 seed / pot) is planted in 6 cm diameter plastic pots and maintained in the greenhouse. • 2. When the primary leaf (wheat) or the cotyledons (cucumber) is/are fully expanded, formulated test compounds are sprayed with a single nozzle overhead track sprayer at a rate of 200 l/ha. Plants are then allowed to air-dry. • 3. Inoculation precedes treatment by 2 or 3 days in the case of curative evaluations and follows treatment by 3 or 4 days in case of residual evaluations. For inoculation, plants are set up on greenhouse benches with bottom watering mats and inoculated by dusting them with conidia from powdery mildew infected plants (stock cultures at an age of 10-14 days). Between inoculation and treatment for curative evaluations and between treatment and inoculation for residual evaluations, plants are maintained in the greenhouse with bottom watering. • 4. Disease on the primary leaf (wheat) or on the cotyledons (cucumber) as percent leaf area with disease symptoms/signs is evaluated about 7 days after inoculation. In the case of wheat, the tips and bases of the leaves are excluded from the evaluation. Percent disease control is then calculated by the following formula: % disease control = 100 -(% infection in treated plants)/(% infection in untreated plants)x 100 [formula]
(§3) • 1. Technical compounds are formulated in a solvent/surfactant system consisting of 5% acetone and 0.05% Tween 20 in deionized water. Compounds are dissolved in acetone prior to addition of the water; the Tween 20 can be added through either the acetone or the water. Dilutions are made using the solvent/surfactant system. Formulated compounds are prepared using deionized water. • 2. Two kinds of controls are included: • Plants treated with the solvent/surfactant solution and inoculated (Solvent Blank). • Untreated plants which are inoculated (Inoculated Control).

Assay [2] deals with Blumeria (Erysiphe) graminis DC. f.sp. hordei E. Marchal. Kind of assay: Zero day protectant test, Barley Powdery Mildew (BPM). Particulars: barley variety Golden Promise, 0 day protectant test, side-by-side, technical material in 0.5% acetone 0.05% Tween 20 water.
From the text: (§4) • (a) Wheat Powdery Mildew (WPM): HOST: Wheat (Triticum aestivum L.) variety Kanzler PATHOGEN: Blumeria (Erysiphe) graminis DC. f.sp. tritici E. Marchal • (b) Barley Powdery Mildew (BPM): HOST: Barley (Hordeum vulgare L.) variety Golden Promise PATHOGEN: Blumeria (Erysiphe) graminis DC. f.sp. hordei E. Marchal
(§5) This test is a zero day protectant test for control of wheat and barley powdery mildews. • 1. Wheat or barley seed (approximately 8-10/pot) is planted in 6 cm diameter plastic pots and maintained in the greenhouse. • 2. When the primary leaf is fully expanded, formulated test compounds are sprayed with a single nozzle overhead track sprayer at a rate of 200 l/ha. Plants are then allowed to air-dry. • 3. Inoculation follows about three hours after compound application. Plants are set up on greenhouse benches with bottom watering mats and inoculated by dusting them with conidia from powdery mildew infected plants (stock cultures at an age of 10-14 days). • 4. Disease on the primary leaf as percent leaf area with disease symptoms/signs is evaluated about 7 days after inoculation. The tips and bases of the leaves are excluded from the evaluation. Percent disease control is then calculated by the following formula: % disease control = 100 -(% infection in treated plants)/(% infection in untreated plants)x 100 [formula]
as §3, with “system. Test compounds are typically tested over a range of concentrations covering several orders of magnitude and then ED values are calculated for comparison of compounds.” for “system.”
(§6) Compounds applied as technical material formulated in 0.5% acetone 0.05% Tween 20 water

The test system of assay [3] is Blumeria (Erysiphe) graminis DC. f.sp. tritici E. Marchal. As to the kind of experiment: Zero day protectant test, Wheat Powdery Mildew (WPM). Particulars: wheat variety Kanzler, 0 day protectant test, side-by-side, technical material in 0.5% acetone 0.05% Tween 20 water.
From the text: as §4, §5
as §3, with “system. Test compounds are typically tested over a range of concentrations covering several orders of magnitude and then ED values are calculated for comparison of compounds.” for “system.”
as §6

In assay [4] the test system is Erysiphe cichoracearum DC. Kind of assay: Curative and residual control test, Cucumber Powdery Mildew (QPM). Particulars: Golovinomyces cichoracearum, 72 h, read-out: Disease control (% efficacy); for Emax at 12.5 ppm: QPM 3 da R (3 day residual), 12,5 ppm; for Emax at 125 ppm / Emax at 1250 ppm: QPM 3 da R (3 day residual).
From the text: as §1, §2, §3

Where [5] appears, read: 72 h, WPM 3 da C (3 day curative).
The mark [6] stands for this setting: 72 h, WPM 3 da C (3 day curative), 125 ppm.
[7] abbreviates: 96 h, WPM 4 da R (4 day residual).
Setting [8] is: 96 h, WPM 4 da R (4 day residual), 125 ppm.
The mark [9] stands for this setting: 48 h, WPM 2 da C (2 day curative), 12,5 ppm, Test B.
Setting [10] is: 48 h, WPM 2 da C (2 day curative), 125 ppm, Test B.
Setting [11] is: 48 h, WPM 2 da C (2 day curative), 1250 ppm, Test B.
The mark [12] stands for this setting: 72 h, WPM 3 da R (3 day residual), 12,5 ppm, Test B.
Setting [13] is: 72 h, WPM 3 da R (3 day residual), 125 ppm, Test B.
Setting [14] is: 72 h, WPM 3 da R (3 day residual), 1250 ppm, Test B.

Like-named read-outs stand apart in the source and are kept apart here.

For the compound `COc1cc(C)c(C(=O)c2c(OC)ccc(C(F)(F)F)c2C)c(OC)c1OC` [Example 64, 6,6'-dimethyl-2,2',3',4'-tetramethoxy-5-trifluoromethyl-benzophenone], in assay [1] (setting [5]), the percent disease control at 0.2 ppm came to 10%, the percent disease control at 1 ppm was 37%, the percent disease control at 5 ppm was determined as 48% and the percent disease control at 25 ppm is 60%. The percent disease control at 125 ppm in assay [1] (setting [6]) was found to be 72%. In assay [1] (setting [7]), the percent disease control at 0.2 ppm is 51%, the percent disease control at 1 ppm was determined as 89%, the percent disease control at 5 ppm was 99% and the percent disease control at 25 ppm was determined as 100%. Also, the percent disease control at 125 ppm in assay [1] (setting [8]) worked out at 100%.
As to `Fc1ccc(Oc2ccnc3cc(Cl)cc(Cl)c23)cc1` [Quinoxyfen, reference compound], the results for the “ED90 (ppm)” value in assay [2] and in assay [3] were 26 ppm and 12 ppm, respectively.
With `COc1cc(C)c(C(=O)c2c(OC)ccc(Br)c2C)c(OC)c1OC` [Example 6, 5-bromo-6,6'-dimethyl-2,2',3',4'-tetramethoxy-benzophenone], the percent disease control at 12.5 ppm stood at 90% in assay [1] (48 h, WPM 2 da C (2 day curative), 12,5 ppm, Test A); 100% in assay [1] (72 h, WPM 3 da R (3 day residual), 12,5 ppm, Test A); 100% in assay [1] (setting [12]). Also, the Emax at 12.5 ppm in assay [1] (setting [9]) is 61%; in assay [4] (Test A) it was 2%; in assay [4] (Test B), 35%. For the same compound, the percent disease control at 125 ppm in assay [1] (48 h, WPM 2 da C (2 day curative), 125 ppm, Test A) is 95%; in assay [1] (setting [6]) it was 64%; in assay [1] (72 h, WPM 3 da R (3 day residual), 125 ppm, Test A), 100%; in assay [1] (setting [13]) it was 100%; in assay [1] (setting [8]), 100%. Besides, the results for the Emax at 125 ppm in assay [1] (setting [10]), in assay [4] (Test A) and in assay [4] (Test B) were 89%, 92% and 92%, respectively. The percent disease control at 1250 ppm in assay [1] (48 h, WPM 2 da C (2 day curative), 1250 ppm, Test A) amounted to 98%; in assay [1] (72 h, WPM 3 da R (3 day residual), 1250 ppm, Test A), 100%; in assay [1] (setting [14]), 100%. Moreover, the Emax at 1250 ppm in assay [1] (setting [11]) turned out to be 87%; in assay [4] (Test A), 100%; in assay [4] (Test B), 100%. The percent disease control at 0.2 ppm in assay [1] (setting [5]) was 17%; in assay [1] (setting [7]), 58%. In addition, the percent disease control at 1 ppm in assay [1] (setting [5]) amounted to 27%; in assay [1] (setting [7]), 90%. Moreover, the percent disease control at 5 ppm in assay [1] (setting [5]) was determined as 43%; in assay [1] (setting [7]) it was 100%. The values for the percent disease control at 25 ppm in assay [1] (setting [5]) and in assay [1] (setting [7]) were 60% and 100%, respectively. In addition, the “ED90 (ppm)” value in assay [2] is reported as 0.9 ppm; in assay [3], 0.1 ppm.
With `COc1cc(C)c(C(=O)c2c(OC)cccc2C(F)(F)F)c(OC)c1OC` [Example 65, 6'-methyl-2,2',3',4'-tetramethoxy-6-trifluoromethyl-benzophenone], in assay [1] (setting [5]), the percent disease control at 0.2 ppm is 10%, the percent disease control at 1 ppm was found to be 23%, the percent disease control at 5 ppm came to 23% and the percent disease control at 25 ppm amounted to 48%. The percent disease control at 125 ppm in assay [1] (setting [6]) was determined as 58%. In assay [1] (setting [7]), the percent disease control at 0.2 ppm was found to be 25%, the percent disease control at 1 ppm was 50%, the percent disease control at 5 ppm turned out to be 93% and the percent disease control at 25 ppm came out at 99%. Besides, the percent disease control at 125 ppm in assay [1] (setting [8]) came out at 100%.
With `COc1cc(C)c(C(=O)c2c(OC)ccc(Br)c2Cl)c(OC)c1OC` [Example 4, 5-bromo-6-chloro-6'-methyl-2,2',3',4'-tetramethoxy-benzophenone], the percent disease control at 12.5 ppm in assay [1] (setting [9]) worked out at 55%; in assay [1] (setting [12]) it was 99%. The percent disease control at 125 ppm in assay [1] (setting [10]) amounted to 71%; in assay [1] (setting [13]) it was 100%. The results for the percent disease control at 1250 ppm in assay [1] (setting [11]) and in assay [1] (setting [14]) were 61% and 100%, respectively. Further, the “ED90 (ppm)” value in assay [2] was 7 ppm; in assay [3] it was 5 ppm. In addition, the Emax at 12.5 ppm in assay [4] (Test B) came out at 8%. Moreover, the Emax at 125 ppm in assay [4] (Test B) turned out to be 97%. The Emax at 1250 ppm in assay [4] (Test B) is 100%.
